# Test results as given in patent publication US7816319B2, “Methods and products for manipulating uncoupling protein expression” (University of Vermont and State Agricultural College, priority 1999, dated 2010).
# Columns and labels:
# [1] = metabolite formed from 5-FU; cited from earlier work
# [2] = 5-FU that is taken up by the cell; cited from earlier work
# L1210 DDP = test: Fas expression after treatment with staurosporin or adriamycin; format: cell-based
# Description: (§1) 4. Treatment of L1210 DDP cells with staurosporin restores Fas expression and susceptibility to drug-induced apoptosis: L1210, but not L1210 DDP, undergo apoptotic cell death. We treated L1210 or L1210 DDP cells with the staurosporin, which inhibits protein kinase C and increases mitochondrial membrane potential, or an anti-cancer agent to which both cells are sensitive, adriamycin. Fas expression was increased or induced on both L1210 and L1210 DDP, respectively, in the presence of staurosporin or adriamycin. The L1210 DDP changed morphologically and began to divide rapidly, changes which appeared to correspond with a reversion back to the phenotype of the L1210 cells.
# L1210 [3] = test: as above; format: cell-based
# Description: as §1
# L1210 [4] = test: Analysis of DNA fragments after methotrexate treatment; format: cell-based; settings: 10^-8 M methotrexate, 24 hours
# Description: (§2) Additionally, L1210 and L1210/DDP cells were treated with 10^-8 M methotrexate for 24 hours. […] The forward scatter low populations took up ethidium bromide differentially. The L1210 cells took up a moderate amount. […] This latter phenotype—loss in forward scatter and membrane permeability with no “DNA laddering”—is the hall mark of oncosis.
# L1210/DDP = test: as above; format: cell-based; settings: 10^-8 M methotrexate, 24 hours
# Description: as §2
# [5] = tested on: Fas deficient lymphocytes; test: Methotrexate-induced apoptosis in splenic lymphocytes, viability by flow cytometry and trypan blue; format: cell-based, mice; settings: splenocytes of C57BL/6 lpr or gld vs wild type; 5×10^−8 M methotrexate, 18 or 32 hours
# Description: 8. Fas Deficient Lymphocytes are also drug resistant to methotrexate: We isolated splenic lymphocytes from aged-matched wild type C57BL/6 mice and C57BL6.1pr and C57BL.gld. Splenocytes from C57BL/6 lpr or gld animals were isolated, red cells depleted, and single cell suspensions prepared. Cells were cultured in the absence or presence of 5×10^−8 M methotrexate for 18 or 32 hours. Cells were harvested and viability was determined by flow cytometric analysis and confirmed with trypan blue exclusion.
# L1210 [6] = tested on: L1210
# Description: (§3) The effects of acetate on susceptibility to Fas-dependent cell death were also examined.
# L1210DDP [7] = tested on: L1210DDP
# Description: as §3
# L1210 [8] = settings: graded concentrations of sodium acetate
# Description: (§4) Sodium Acetate as a mitochondrial modifying agent was examined. L1210 or L1210DDP cells were cultured in the presence of graded concentrations of sodium acetate in the medium. Cells were stained with Jo2.2, a fluorescein conjugated anti-Fas antibody, or an isotype control. Cell surface staining was measured flow cytometrically. The percentage of mean fluorescence intensity over the isotype control was plotted.
# L1210DDP [9] = settings: graded concentrations of sodium acetate
# Description: as §4
# B16 melanoma cells [10] = settings: increasing concentrations of sodium acetate
# Description: B16 cells were cultured in the in the presence of different concentrations of sodium acetate and Fas expression was measured.
# B16 cells also were cultured in the presence of different concentrations of sodium acetate and Fas expression was measured.
# B16 melanoma cells [11] = settings: increasing concentrations of sodium acetate; remark: listed apart in the source
# Description: Again cells were cultured in the presence of varying concentration of sodium acetate.
# MDR cells = test: Inhibition of lysosomal UCP translocation; format: cell-based
# Description: MDR cells, which are plasma membrane UCP negative and lysosomal UCP positive were treated with tunicamycin. […] These same cells were treated with tunicamycin and an-anti-UCP2 antibody.
compound,measurement,setting,value
"NCC(F)C(=O)O (stereo not drawn) [2-fluoro-β-alanine (FBAL), 2-fluoro-β-alanine]",toxicity,[1],neurotoxic and cardiotoxic
"O=c1[nH]cc(F)c(=O)[nH]1 [5-FU, 5-Fluorouracil]",half-life in vivo,[2],about 18 minutes
COc1cccc2c1C(=O)c1c(O)c3c(c(O)c1C2=O)C[C@@](O)(C(=O)CO)C[C@@H]3O[C@H]1C[C@H](N)[C@H](O)[C@H](C)O1 [adriamycin],Fas expression,L1210 DDP,induced
same,Fas expression,L1210 [3],increased
CN(Cc1cnc2nc(N)nc(N)c2n1)c1ccc(C(=O)N[C@@H](CCC(=O)O)C(=O)O)cc1 [methotrexate],DNA laddering (nucleosome sized fragments),L1210 [4],produced a ladder of nucleosome sized fragments indicative of apoptosis
same,DNA laddering (nucleosome sized fragments),L1210/DDP,did not
same,susceptibility to methotrexate-induced apoptosis,[5],decreased susceptibility
CC(=O)[O-].[Na+] [sodium acetate],susceptibility to Fas-dependent cell death,L1210 [6],resulted in susceptibility to Fas-dependent cell death
same,susceptibility to Fas-dependent cell death,L1210DDP [7],resulted in susceptibility to Fas-dependent cell death
same,cell surface Fas expression,L1210 [8],increases cell surface Fas expression
same,cell surface Fas expression,L1210DDP [9],increases cell surface Fas expression
same,levels of cell surface Fas,B16 melanoma cells [10]; non-permeabilized B16,increased
same,levels of intracellular Fas,B16 melanoma cells [10]; permeabilized B16,declined
same,glucose oxidation,B16 melanoma cells [11],decreased
same,glucose utilization,B16 melanoma cells [11],decreased
CN[C@@H]1C[C@H]2O[C@@](C)([C@@H]1OC)n1c3ccccc3c3c4c(c5c6ccccc6n2c5c31)C(=O)NC4 [staurosporin],Fas expression,L1210 DDP,induced
same,Fas expression,L1210 [3],increased
tunicamycin,localization of intracellular UCP,MDR cells,shift in the intracellular UCP from the lysosome and mitochondria to the plasma membrane
